Reference: ChEMBL document CHEMBL4177736, “Monoterpene indole alkaloid azine derivatives as MDR reversal agents” (Bioorg Med Chem, 2018)
pEC50, pIC50: −log10 of the molar value. Active and inactive are the calls of the source. The calls are words filed in the database; no cut-off is given here.

What was measured:
[1] = system: NIH3T3; assay: Cytotoxicity against mouse NIH/3T3 cells assessed as reduction in cell viability at 20 uM after 72 hrs by MTT assay; format: cell-based; conditions: nih3t3, 72 h
[2] = biological target: T1, BCRP (ABCG2) (Homo sapiens, UniProt Q9UNQ0); assay: Inhibition of BCRP (unknown origin) expressed in HEK293 cells assessed as reduction in mitoxantrone efflux at 20 uM incubated for 30 mins by flow cytometric analysis relative to control; format: cell-based; conditions: HEK293 cells expressing BCRP, probe mitoxantrone
T1 sequence (Q9UNQ0 whole entry): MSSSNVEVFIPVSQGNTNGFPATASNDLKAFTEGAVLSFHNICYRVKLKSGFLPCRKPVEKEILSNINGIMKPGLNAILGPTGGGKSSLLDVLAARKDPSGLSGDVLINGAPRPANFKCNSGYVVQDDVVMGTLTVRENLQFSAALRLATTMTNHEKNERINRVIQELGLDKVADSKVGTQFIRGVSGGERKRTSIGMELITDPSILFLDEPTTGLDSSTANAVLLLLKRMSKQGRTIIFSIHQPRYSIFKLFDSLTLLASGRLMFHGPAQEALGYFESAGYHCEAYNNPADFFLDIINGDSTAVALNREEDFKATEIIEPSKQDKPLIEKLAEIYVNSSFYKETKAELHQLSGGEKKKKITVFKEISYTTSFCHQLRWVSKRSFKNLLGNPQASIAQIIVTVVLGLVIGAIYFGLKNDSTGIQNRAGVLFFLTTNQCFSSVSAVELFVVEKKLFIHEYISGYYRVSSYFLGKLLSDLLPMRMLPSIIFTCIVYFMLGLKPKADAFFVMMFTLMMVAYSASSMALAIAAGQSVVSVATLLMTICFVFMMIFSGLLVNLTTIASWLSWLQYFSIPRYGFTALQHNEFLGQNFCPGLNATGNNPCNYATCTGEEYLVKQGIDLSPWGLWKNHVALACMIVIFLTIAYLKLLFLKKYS

[3] = system: BHK-21; assay: Resistance ratio of EC50 for MRP1-expressing BHK21 cells to EC50 for wild type BHK21 cells; format: functional, Mesocricetus auratus
[4] = biological target: T2, MRP1 (Homo sapiens, UniProt P33527); assay: (§1) Inhibition of MRP1 (unknown origin) expressed in BHK21 cells assessed as GSH efflux at 20 uM incubated for 3 hrs measured every 30 secs for 2 mins by GSH reductase enzyme based assay (reference value: 100%); format: cell-based; conditions: BHK21 cells expressing MRP1, probe GSH
T2 sequence (P33527 whole entry): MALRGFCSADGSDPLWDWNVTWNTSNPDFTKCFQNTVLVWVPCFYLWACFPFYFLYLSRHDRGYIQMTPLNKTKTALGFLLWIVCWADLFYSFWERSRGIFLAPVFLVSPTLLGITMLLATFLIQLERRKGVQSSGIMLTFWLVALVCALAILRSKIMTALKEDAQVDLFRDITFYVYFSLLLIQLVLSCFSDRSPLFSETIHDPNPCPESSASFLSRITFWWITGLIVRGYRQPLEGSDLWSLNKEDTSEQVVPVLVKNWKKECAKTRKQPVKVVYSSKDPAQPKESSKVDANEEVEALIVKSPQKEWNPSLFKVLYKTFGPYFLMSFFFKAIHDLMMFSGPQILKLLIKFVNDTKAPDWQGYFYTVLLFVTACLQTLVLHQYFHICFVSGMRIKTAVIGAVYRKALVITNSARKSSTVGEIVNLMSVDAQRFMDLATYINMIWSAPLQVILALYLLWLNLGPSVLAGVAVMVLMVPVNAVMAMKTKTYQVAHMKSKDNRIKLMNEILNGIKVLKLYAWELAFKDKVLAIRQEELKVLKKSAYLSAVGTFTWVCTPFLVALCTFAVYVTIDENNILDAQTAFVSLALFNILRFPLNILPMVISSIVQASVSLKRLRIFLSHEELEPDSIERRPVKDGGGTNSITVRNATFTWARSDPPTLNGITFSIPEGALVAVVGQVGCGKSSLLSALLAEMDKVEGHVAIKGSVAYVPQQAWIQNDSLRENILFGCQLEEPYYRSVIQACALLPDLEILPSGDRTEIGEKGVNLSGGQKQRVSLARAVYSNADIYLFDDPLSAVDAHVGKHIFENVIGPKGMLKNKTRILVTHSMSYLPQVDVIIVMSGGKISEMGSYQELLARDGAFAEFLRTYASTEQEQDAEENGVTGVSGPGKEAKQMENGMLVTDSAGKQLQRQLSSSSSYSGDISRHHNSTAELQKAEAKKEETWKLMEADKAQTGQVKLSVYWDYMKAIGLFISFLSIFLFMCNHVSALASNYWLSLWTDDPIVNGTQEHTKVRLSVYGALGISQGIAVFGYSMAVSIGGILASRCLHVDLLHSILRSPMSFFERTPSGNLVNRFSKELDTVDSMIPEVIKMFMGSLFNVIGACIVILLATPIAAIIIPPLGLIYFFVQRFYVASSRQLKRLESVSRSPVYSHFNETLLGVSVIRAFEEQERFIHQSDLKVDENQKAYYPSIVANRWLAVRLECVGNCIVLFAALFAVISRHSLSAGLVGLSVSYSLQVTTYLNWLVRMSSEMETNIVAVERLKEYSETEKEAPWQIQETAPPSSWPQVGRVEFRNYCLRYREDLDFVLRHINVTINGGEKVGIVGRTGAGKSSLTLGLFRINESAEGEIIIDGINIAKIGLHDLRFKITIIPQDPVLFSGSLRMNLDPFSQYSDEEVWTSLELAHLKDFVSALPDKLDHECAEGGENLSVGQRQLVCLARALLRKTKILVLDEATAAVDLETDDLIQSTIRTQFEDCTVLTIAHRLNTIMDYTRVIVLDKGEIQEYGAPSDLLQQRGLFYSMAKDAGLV

[5] = biological target: T2, MRP1; assay: Inhibition of MRP1 (unknown origin) expressed in HEK293FlpIN cells assessed as reduction in calcein-AM efflux at 20 uM incubated for 30 mins by flow cytometric analysis relative to control; format: cell-based; conditions: HEK293FlpIN cells expressing MRP1, probe calcein-AM
[6] = system: NIH3T3; assay: Cytotoxicity against MDR1-expressing mouse NIH/3T3 cells assessed as growth inhibition at 20 uM after 72 hrs by MTT assay; format: functional, cell-based
[7] = Inhibition of P-gp (unknown origin) expressed in mouse NIH/3T3 cells assessed as reduction in rhodamine 123 efflux at 20 uM incubated for 30 mins by flow cytometric analysis relative to control; format: cell-based; conditions: Homo sapiens
[8] = system: BHK-21; assay: Cytotoxicity against MRP1-expressing BHK21 cells assessed as growth inhibition at 20 uM after 72 hrs by MTT assay; format: functional; conditions: Mesocricetus auratus; for inhibition of growth at 20 µM: BHK-21, 72 h, read-out: GI
[9] = system: BHK-21; assay: Cytotoxicity against MRP1-expressing BHK21 cells assessed as cell death after 72 hrs by MTT assay; format: functional, cell-based; conditions: Mesocricetus auratus, BHK-21, 72 h
[10] = system: BHK-21; assay: Cytotoxicity against wild type BHK21 cells assessed as reduction in cell viability at 20 uM after 72 hrs by MTT assay; format: cell-based, Mesocricetus auratus; conditions: hamster, bhk-21, 72 h
[11] = biological target: T3, Multidrug resistance-associated protein 1 (Homo sapiens, UniProt P33527); assay: as §1; format: cell-based; conditions: 3 h, 20 µM
T3 sequence (P33527 whole entry): as above

[12] = biological target: T3, Multidrug resistance-associated protein 1; assay: Inhibition of MRP1 (unknown origin) expressed in HEK293FlpIN cells assessed as reduction in calcein-AM efflux incubated for 30 mins by flow cytometric analysis; format: cell-based

| Structure (SMILES) | Activity [1] | inhibition at 0.5 h, 20 µM [2] | Ratio EC50 [3] | inhibition at 3 h, 20 µM [4] | inhibition at 0.5 h, 20 µM [5] | growth inhibition (GI) [6] | inhibition [7] | growth inhibition (GI) [8] | pEC50 [9] | Activity [10] | inhibition of growth at 20 µM [8] | inhibition (INH) [11] | pIC50 [12] | inhibition (INH) ([12]; human, 0.5 h) |
| --- | --- | --- | --- | --- | --- | --- | --- | --- | --- | --- | --- | --- | --- | --- |
| CC[C@H]1CN(C)[C@H]2Cc3c([nH]c4ccccc34)/C(=N/N=C\C(C)(C)C)C[C@H]1[C@H]2C(=O)OC | Non-Toxic | 2.4% | 0.74 | 63 to 75% | 15.9% | Active | 10.3% | Active | 4.49 | Non-Toxic |  |  |  |  |
| CC[C@H]1CN(C)[C@H]2Cc3c([nH]c4ccccc34)/C(=N/N=C\c3ccc([N+](=O)[O-])cc3)C[C@H]1[C@H]2C(=O)OC | Non-Toxic | 2.2% |  |  | 47.5% | Active | 7.5% |  |  | Non-Toxic | 90 to 98% |  |  |  |
| CC[C@@H]1CN(C)[C@H]2Cc3c([nH]c4ccccc34)/C(=N/N=C\C=C\c3ccccc3)C[C@H]1[C@H]2C(=O)OC | Non-Toxic | -2% |  |  | 10% | Active | 26.7% |  |  | Non-Toxic | > 90% | Not Active |  |  |
| CC[C@H]1CN(C)[C@H]2Cc3c([nH]c4ccccc34)/C(=N/N=C\c3ccccc3[N+](=O)[O-])C[C@H]1[C@H]2C(=O)OC | Non-Toxic | 4.5% |  |  | 29.5% | Active | 57.4% |  |  |  |  |  |  |  |
| CC[C@@H]1CN(C)[C@H]2Cc3c([nH]c4ccccc34)/C(=N/N=C\c3ccc([N+](=O)[O-])cc3)C[C@H]1[C@H]2C(=O)OC | Non-Toxic | 2.9% |  |  | 23.4% | Active | 14.7% |  |  | Non-Toxic | > 90% |  |  |  |
| CC[C@@H]1CN(C)[C@H]2Cc3c([nH]c4ccccc34)/C(=N/N=C\c3ccc[nH]3)C[C@H]1[C@H]2C(=O)OC | Non-Toxic | 3.7% |  |  | 15.2% | Active | 4.5% |  |  |  |  |  |  |  |
| CC[C@H]1CN(C)[C@H]2Cc3c([nH]c4ccccc34)/C(=N/N=C\c3ccc[nH]3)C[C@H]1[C@H]2C(=O)OC | Non-Toxic | 13.5% |  | 63 to 75% | 56% | Active | 27.6% |  |  | Non-Toxic | > 70% |  |  |  |
| CC[C@@H]1CN(C)[C@H]2Cc3c([nH]c4ccccc34)/C(=N/N=C\C(C)(C)C)C[C@H]1[C@H]2C(=O)OC | Non-Toxic | 1.3% | 0.83 | 63 to 75% | 2.5% | Active | 3.1% | Active | 4.24 | Non-Toxic |  |  |  |  |
| CC[C@@H]1CN(C)[C@H]2Cc3c([nH]c4ccccc34)/C(=N/N=C\c3ccccc3[N+](=O)[O-])C[C@H]1[C@H]2C(=O)OC | Non-Toxic | -0.1% |  |  | 14.6% | Active | 42.9% |  |  | Non-Toxic | 90 to 98% |  |  |  |
| CC[C@H]1CN(C)[C@H]2Cc3c([nH]c4ccccc34)/C(=N/N=C\c3cccc(Br)c3)C[C@H]1[C@H]2C(=O)OC | Non-Toxic | -3.1% |  |  | 12.8% | Active | 28.6% |  |  | Non-Toxic | 90 to 98% |  |  |  |
| CC[C@H]1CN(C)[C@H]2Cc3c([nH]c4ccccc34)/C(=N/N=C\C=C\c3ccccc3)C[C@H]1[C@H]2C(=O)OC | Non-Toxic | -0.3% |  |  | 20.3% | Active | 45.8% |  |  | Non-Toxic | 90 to 98% |  |  |  |
| CC[C@H]1CN(C)[C@H]2Cc3c([nH]c4ccccc34)/C(=N/N=C\C3CCCC3)C[C@H]1[C@H]2C(=O)OC | Non-Toxic | 0.8% |  |  | 35.5% | Active | 30.3% |  |  |  |  |  |  |  |
| CCC(/C=N\N=C1/C[C@@H]2[C@H](CC)CN(C)[C@@H](Cc3c1[nH]c1ccccc31)[C@@H]2C(=O)OC)CC | Non-Toxic | 0.9% | 0.81 | 63 to 75% | 26.4% | Active | 2.8% | Active | 4.56 | Non-Toxic |  |  |  |  |
| CC[C@@H]1CN(C)[C@H]2Cc3c([nH]c4ccccc34)/C(=N/N=C\C3CCCC3)C[C@H]1[C@H]2C(=O)OC | Non-Toxic | -2.3% |  |  | 19.1% | Active | 2.7% |  |  |  |  |  |  |  |
| CC[C@H]1CN(C)[C@H]2Cc3c([nH]c4ccccc34)/C(=N/N=C\c3ccc(O)c(OC)c3)C[C@H]1[C@H]2C(=O)OC | Non-Toxic | 10.5% |  |  | 80.7% | Active | 38.6% |  |  | Non-Toxic | 90 to 98% |  | < 6.00 | Dose-dependent effect |
| CC[C@H]1CN(C)[C@H]2Cc3c([nH]c4ccccc34)/C(=N/N=C\c3cccc(Cl)c3)C[C@H]1[C@H]2C(=O)OC | Non-Toxic | -2.4% |  |  | 13.6% | Active | 21.4% |  |  | Non-Toxic | 90 to 98% |  |  |  |
| CCC(/C=N\N=C1/C[C@@H]2[C@@H](CC)CN(C)[C@@H](Cc3c1[nH]c1ccccc31)[C@@H]2C(=O)OC)CC | Non-Toxic | 8.2% | 0.63 | 63 to 75% | 30.3% | Active | 26.5% | Active | 4.74 | Non-Toxic |  |  |  |  |
| CC[C@@H]1CN(C)[C@H]2Cc3c([nH]c4ccccc34)/C(=N/N=C\c3cccc(Cl)c3)C[C@H]1[C@H]2C(=O)OC | Non-Toxic | -1.3% |  |  | 10.8% | Active | 20.2% |  |  | Non-Toxic | 90 to 98% |  |  |  |
| CC[C@@H]1CN(C)[C@H]2Cc3c([nH]c4ccccc34)/C(=N/N=C\c3cccc(Br)c3)C[C@H]1[C@H]2C(=O)OC | Non-Toxic | -2.4% | 0.73 |  | 12% | Active | 11.4% |  | 4.78 | Non-Toxic | > 90% | Not Active |  |  |
